From paper PMC4947679, “Quantitative In Vitro and In Vivo Evaluation of Intestinal and Blood-Brain Barrier Transport Kinetics of the Plant N-Alkylamide Pellitorine” (BioMed Research International, 2016)
Like-named read-outs stand apart in the source and are kept apart here.

Key:
[1] = Capillary depletion experiment in mice; format: in vivo, ICR-CD-1 mice; conditions: 10 min after intravenous injection; for Kp at 10 min: female, ICR-CD-1, mouse, 36 μg/mouse
Protocol: A capillary depletion experiment was performed to distinguish the transport of pellitorine into the brain, represented by the parenchyma, and part of pellitorine which is trapped by the endothelial cells of the brain, represented by the capillaries. A method of Triguero et al. was used, which was modified by Gutierrez et al.. The mice were anesthetized intraperitoneally with 40% (w/V) urethane solution (3 g/kg). Thereafter, 20 μL of the 1.8 mg/mL pellitorine dose solution was injected into the jugular vein. Ten min after injection, blood was collected from the abdominal aorta and serum was obtained by centrifuging the blood at 10 000 ×g during 15 min at 21°C. Then, after removing the skin of the mice's chest, the aorta is clamped, the jugular veins are severed, and the brain is immediately perfused manually with 20 mL of Lactated Ringer's solution. The mice are decapitated, and the brains are isolated, weighed, and put into tubes (LoBind Eppendorf), to which 525 μL ice-cold capillary buffer (10 mM HEPES, 141 mM NaCl, 4 mM KCl, 2.8 mM CaCl2, 1 mM MgSO4, 1 mM NaH2PO4, and 10 mM D-glucose adjusted to pH 7.4) was added. The tubes (LoBind Eppendorf) were homogenized. Next, 1000 μL of 26% ice-cold dextran solution in capillary buffer was added and vortexed and the tubes were subsequently centrifuged at 20 000 ×g for 60 min at 4°C. Parenchyma and fat tissue (supernatant) were transferred into separate tubes (LoBind Eppendorf) and weighed. The capillaries (pellet) were kept in the original tube. The sample preparation of the pellet and the supernatant is the same sample preparation method as used for the mice brains and mice serum, respectively, as described in Section 2.6.
The distribution in the brains was calculated as follows: (5) Fraction%=Mtissue/Mcapillaries+Mparenchyma×100 in which M tissue is the amount of pellitorine in the capillaries and parenchyma, M capillaries the amount of pellitorine in the capillaries, and M parenchyma the amount of pellitorine in the parenchyma. The capillary depletion experiment was performed in duplicate and mean values are reported.

[2] = In vitro metabolic stability; format: in vitro ADME; conditions: pH 7.4; one hour, 37°C; mouse serum, brain homogenate and liver homogenate
Protocol: The in vitro metabolic stability of pellitorine was evaluated in mouse brain and liver homogenates and mouse serum according to previously described protocols. Using the Pierce Modified Lowry Protein Assay method (Thermo Scientific), the protein content of each tissue homogenate was determined to prepare a stock solution containing a 0.6 mg/mL protein concentration in Krebs-Henseleit buffer (pH 7.4). […] After 0, 5, 7.5, 15, 60, and 120 min, aliquots of 100 μL were taken and transferred into 0.5 mL tubes (LoBind Eppendorf) containing 100 μL of 1% (V/V) TFA in water. Next, the samples were heated at 95°C for 5 min and subsequently cooled for 30 min in ice. Thereafter, the samples were centrifuged (20 000 ×g for 30 min at 5°C) and 25 μL of the clear supernatant was injected and analysed using a HPLC-UV/MS method of 46 min which was previously described. The HPLC-MS analysis was done on a HPLC system which consisted of a Spectra System SN4000 interface, a Spectra System SCM1000 degasser, a Spectra System P1000XR pump, a Spectra System AS3000 autosampler, and a Finnigan LCQ Classic ion trap mass spectrometer in positive ion mode (all from Thermo, San José, CA, USA) equipped with Waters 2487 Dual Absorbance detector and Xcalibur 2.0 software (Thermo) for data acquisition. Control solutions were also prepared but without pellitorine. […]

[3] = Brain-to-blood transport after intracerebroventricular injection in mice; format: in vivo, ICR-CD-1 mice
Protocol: To evaluate the efflux of pellitorine out of the brain into the blood, a previously described in vivo method was used. Briefly, the ICR-CD-1 mice were anesthetized with 40% (w/V) urethane solution (3 g/kg). Then, the skin of the skull was removed and a hole was made into the lateral ventricle using a 22 G needle marked with tape at 2 mm at the following coordinates: 1 mm lateral and 0.34 mm posterior to the bregma. Using a syringe pump (KDS100, KR analytical, Cheshire, UK), 1 μL of the 1.8 mg/mL pellitorine dose solution as used for the blood-to-brain influx experiment was injected intracerebroventriculary (ICV) at a speed of 360 μL/h for 10 s. […] Just before decapitation, blood was collected from the abdominal aorta and serum was obtained by centrifuging the blood at 10 000 ×g during 15 min at 21°C. Thereafter, brains were collected. The natural logarithm of the pellitorine concentration in brain (ng/g) was plotted versus time. The efflux rate constant k out (min^−1) is obtained from the negative value of the slope of the linear regression, applying first-order kinetics. From k out, the efflux brain half-life (t 1/2,brain) (min) is calculated as follows: t 1/2,brain = ln(2)/k out.

[4] = design: method as in PMID 25481393; conditions: cited from earlier work

Q: Which “fraction in brain capillaries” value ([1]; mean of duplicate) does the source give for `CCCCC/C=C/C=C/C(=O)NCC(C)C` [pellitorine, deca-2E,4E-dienoic acid isobutylamide] here?
A: 3%

Q: And the “fraction in brain parenchyma” value ([1]; mean of duplicate)?
A: 97%

Q: And the Kp at 10 min ([1]; brain capillaries (relative to serum), read-out: brain capillaries, brain/serum ratio)?
A: 0.01

Q: What about the Kp at 10 min ([1]; brain parenchyma (relative to serum), read-out: brain parenchyma, brain/serum ratio) of the same compound?
A: 0.347

Q: And the recovery at 1 h, 0.025 mg/mL [2]?
A: 91 to 105%

Q: And the “efflux transfer constant k out” value [3]?
A: 0.05 min⁻¹

Q: What about the half-life ([3]; female, ICR-CD-1, mouse, icv or intrathecal, 1.8 μg/mouse, read-out: efflux brain half-life t 1/2,brain) of the same compound?
A: 13.8 min

Q: What about the “aqueous permeability coefficient K p,aq” value ([4]; pellitorine from crude plant extract) of the same compound?
A: 2.3 10^−4 cm/h

Q: What about the “aqueous permeability coefficient K p,aq” value ([4]; purified pellitorine) of the same compound?
A: 1.1 10^−4 cm/h
